Measurements taken from PubChem BioAssay (NCI).
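These data come from cells grown in 96-well plates and exposed to compound for 48 hours at five concentrations. Abbreviation: GI50, concentration required for 50% inhibition of growth. Definition used: TGI = concentration required for complete inhibition of growth.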

Assays:
Test in all cases: DTP human tumour cell line panel, 48 h
786-0 renal = test system: 786-0 renal
A498 renal = test system: A498 renal
A549 NSCLC = test system: A549 NSCLC
ACHN renal = test system: ACHN renal
BT-549 breast = test system: BT-549 breast
CAKI-1 renal = test system: CAKI-1 renal
CCRF-CEM leukemia = test system: CCRF-CEM leukemia
COLO 205 colon = test system: COLO 205 colon
DU-145 prostate = test system: DU-145 prostate
EKVX NSCLC = test system: EKVX NSCLC
HCC-2998 colon = test system: HCC-2998 colon
HCT-116 colon = test system: HCT-116 colon
HCT-15 colon = test system: HCT-15 colon
HL-60(TB) leukemia = test system: HL-60(TB) leukemia
HOP-62 NSCLC = test system: HOP-62 NSCLC
HOP-92 NSCLC = test system: HOP-92 NSCLC
HS 578T breast = test system: HS 578T breast
HT29 colon = test system: HT29 colon
IGROV1 ovarian = test system: IGROV1 ovarian
K-562 leukemia = test system: K-562 leukemia
KM12 colon = test system: KM12 colon
LOX IMVI melanoma = test system: LOX IMVI melanoma
M14 melanoma = test system: M14 melanoma
MALME-3M melanoma = test system: MALME-3M melanoma
MCF7 breast = test system: MCF7 breast
MDA-MB-231 breast = test system: MDA-MB-231 breast
MDA-MB-435 = test system: MDA-MB-435
MOLT-4 leukemia = test system: MOLT-4 leukemia
NCI-H226 lung = test system: NCI-H226 lung
NCI-H23 lung = test system: NCI-H23 lung
NCI-H460 lung = test system: NCI-H460 lung
NCI-H522 lung = test system: NCI-H522 lung
NCI/ADR-RES ovarian = test system: NCI/ADR-RES ovarian
OVCAR-3 ovarian = test system: OVCAR-3 ovarian
OVCAR-5 ovarian = test system: OVCAR-5 ovarian
OVCAR-8 ovarian = test system: OVCAR-8 ovarian
PC-3 prostate = test system: PC-3 prostate
RPMI-8226 leukemia = test system: RPMI-8226 leukemia
RXF 393 renal = test system: RXF 393 renal
SF-268 CNS = test system: SF-268 CNS
SF-295 CNS = test system: SF-295 CNS
SF-539 CNS = test system: SF-539 CNS
SK-MEL-2 melanoma = test system: SK-MEL-2 melanoma
SK-MEL-28 melanoma = test system: SK-MEL-28 melanoma
SK-MEL-5 melanoma = test system: SK-MEL-5 melanoma
SK-OV-3 ovarian = test system: SK-OV-3 ovarian
SN12C renal = test system: SN12C renal
SNB-19 CNS = test system: SNB-19 CNS
SNB-75 CNS = test system: SNB-75 CNS
SR leukemia = test system: SR leukemia
SW-620 colon = test system: SW-620 colon
T-47D breast = test system: T-47D breast
TK-10 renal = test system: TK-10 renal
U251 CNS = test system: U251 CNS
UACC-257 melanoma = test system: UACC-257 melanoma
UACC-62 melanoma = test system: UACC-62 melanoma
UO-31 renal = test system: UO-31 renal

CC(C)(C)c1ccc(CC(=O)Nc2sc3c(c2C(N)=O)CCC(=O)C3)cc1
GI50 (786-0 renal): 1390 nM | TGI (786-0 renal): 11800 nM | GI50 (A498 renal): 2050 nM | TGI (A498 renal): 6970 nM | GI50 (A549 NSCLC): 1990 nM | TGI (A549 NSCLC): 6920 nM | GI50 (ACHN renal): 374 nM | TGI (ACHN renal): 1310 nM | GI50 (BT-549 breast): 480 nM | TGI (BT-549 breast): 2400 nM | GI50 (CAKI-1 renal): 395 nM | TGI (CAKI-1 renal): 3010 nM | GI50 (CCRF-CEM leukemia): 137 nM | TGI (CCRF-CEM leukemia): 3620 nM | GI50 (COLO 205 colon): 1330 nM | TGI (COLO 205 colon): 3020 nM | GI50 (DU-145 prostate): 3170 nM | TGI (DU-145 prostate): 14000 nM | GI50 (EKVX NSCLC): 549 nM | TGI (EKVX NSCLC): 3540 nM | GI50 (HCC-2998 colon): 1490 nM | TGI (HCC-2998 colon): 3880 nM | GI50 (HCT-116 colon): 260 nM | TGI (HCT-116 colon): 1290 nM | GI50 (HCT-15 colon): 295 nM | TGI (HCT-15 colon): 2110 nM | GI50 (HL-60(TB) leukemia): 423 nM | TGI (HL-60(TB) leukemia): 3110 nM | GI50 (HOP-62 NSCLC): 2690 nM | TGI (HOP-62 NSCLC): 13200 nM | GI50 (HOP-92 NSCLC): 464 nM | TGI (HOP-92 NSCLC): 1850 nM | GI50 (HS 578T breast): 1980 nM | TGI (HS 578T breast): 10900 nM | GI50 (HT29 colon): 871 nM | TGI (HT29 colon): 8430 nM | GI50 (IGROV1 ovarian): 532 nM | TGI (IGROV1 ovarian): 3100 nM | GI50 (K-562 leukemia): 233 nM | TGI (K-562 leukemia): 4940 nM | GI50 (KM12 colon): 880 nM | TGI (KM12 colon): 3160 nM | GI50 (LOX IMVI melanoma): 460 nM | TGI (LOX IMVI melanoma): 3410 nM | GI50 (M14 melanoma): 435 nM | TGI (M14 melanoma): 2690 nM | GI50 (MALME-3M melanoma): 692 nM | TGI (MALME-3M melanoma): 2350 nM | GI50 (MCF7 breast): 433 nM | TGI (MCF7 breast): 6660 nM | GI50 (MDA-MB-231 breast): 1170 nM | TGI (MDA-MB-231 breast): 3290 nM | GI50 (MDA-MB-435): 1300 nM | TGI (MDA-MB-435): 4210 nM | GI50 (MOLT-4 leukemia): 569 nM | TGI (MOLT-4 leukemia): 8210 nM | GI50 (NCI-H226 lung): 1700 nM | TGI (NCI-H226 lung): 4140 nM | GI50 (NCI-H23 lung): 340 nM | TGI (NCI-H23 lung): 3590 nM | GI50 (NCI-H460 lung): 1030 nM | TGI (NCI-H460 lung): 8060 nM | GI50 (NCI-H522 lung): 283 nM | TGI (NCI-H522 lung): 2590 nM | GI50 (NCI/ADR-RES ovarian): 621 nM | TGI (NCI/ADR-RES ovarian): 5110 nM | GI50 (OVCAR-3 ovarian): 541 nM | TGI (OVCAR-3 ovarian): 2090 nM | GI50 (OVCAR-5 ovarian): 901 nM | TGI (OVCAR-5 ovarian): 2990 nM | GI50 (OVCAR-8 ovarian): 458 nM | TGI (OVCAR-8 ovarian): 24700 nM | GI50 (PC-3 prostate): 207 nM | TGI (PC-3 prostate): 1900 nM | GI50 (RPMI-8226 leukemia): 221 nM | TGI (RPMI-8226 leukemia): 691 nM | GI50 (RXF 393 renal): 594 nM | TGI (RXF 393 renal): 1980 nM | GI50 (SF-268 CNS): 2820 nM | TGI (SF-268 CNS): 12700 nM | GI50 (SF-295 CNS): 1180 nM | TGI (SF-295 CNS): 3180 nM | GI50 (SF-539 CNS): 421 nM | TGI (SF-539 CNS): 1670 nM | GI50 (SK-MEL-2 melanoma): 2290 nM | TGI (SK-MEL-2 melanoma): 6640 nM | GI50 (SK-MEL-28 melanoma): 1380 nM | TGI (SK-MEL-28 melanoma): 3160 nM | GI50 (SK-MEL-5 melanoma): 1230 nM | TGI (SK-MEL-5 melanoma): 2580 nM | GI50 (SK-OV-3 ovarian): 2770 nM | TGI (SK-OV-3 ovarian): 8040 nM | GI50 (SN12C renal): 1040 nM | TGI (SN12C renal): 3910 nM | GI50 (SNB-19 CNS): 1090 nM | TGI (SNB-19 CNS): 4690 nM | GI50 (SNB-75 CNS): 1300 nM | TGI (SNB-75 CNS): 4280 nM | GI50 (SR leukemia): 132 nM | GI50 (SW-620 colon): 386 nM | TGI (SW-620 colon): 2160 nM | GI50 (T-47D breast): 368 nM | TGI (T-47D breast): 2670 nM | GI50 (TK-10 renal): 473 nM | TGI (TK-10 renal): 8480 nM | GI50 (U251 CNS): 389 nM | TGI (U251 CNS): 2250 nM | GI50 (UACC-257 melanoma): 2040 nM | TGI (UACC-257 melanoma): 5860 nM | GI50 (UACC-62 melanoma): 540 nM | TGI (UACC-62 melanoma): 2070 nM | GI50 (UO-31 renal): 430 nM | TGI (UO-31 renal): 1680 nM
